Assay [1] has as its system Colo205 tumor cells. In words: Cell growth inhibition assay (CellTiter-Glo), Colo205. The class given is cell-based, Human. Conditions: Homo sapiens, COLO 205, 72 h; 3 days incubation. The procedure, abridged: (§1)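 Readout was CellTiter-Glo luminescence (total ATP, surrogate for cell number) after 3-day exposure at 37° C, 5% CO2 to 1:3 serial compound dilutions in 0.2% final DMSO. Seeding was 500 cells/well; IC50 derived by 4-parameter fit relative to vehicle-treated wells.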

Assay [2] deals with SK-MEL-3 tumor cells. Briefly: Cell growth inhibition assay (CellTiter-Glo), SK-MEL-3. The class given is cell-based, Human. The settings on record: for pIC50: Homo sapiens, SK-MEL3. The procedure, abridged:
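Cells seeded at 500/well (HN5 and HT-29 in high-glucose DMEM/10% FBS; A375P F11s in RPMI/10% FBS with pyruvate; SK-MEL-3 in McCoy's 5A/15% FBS), then exposed next day to 1:3 serial compound dilutions (0.2% DMSO) for 3 days at 37° C. CellTiter-Glo luminescence measured ATP; IC50 derived by 4-parameter fit.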

The target in assay [3] is T1, ErbB2 (Homo sapiens, UniProt P04626).
T1 construct: made in house; host or cells: baculovirus expression system
Briefly: ErbB-2 substrate phosphorylation assay (HTRF). The class given is biochemical. The procedure, abridged:
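Baculovirus-expressed EGFR (0.8 nM) or ErbB2 (10 nM) in enzyme mix, preincubated 1 h at 20 °C with compound (0.00027–47.6 μM final), then 90 min at 20 °C with substrate mix of 20 μM ATP, 0.8 uM biotinylated Peptide C, MnCl2, MOPS pH 7.5. Phosphotyrosine by HTRF; pIC50 reported.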
For orientation: Time-resolved FRET reads energy transfer from a long-lived donor to a nearby acceptor.

The subject of assay [4] is SK-MEL-28 tumor cells. Briefly: Cell growth inhibition assay (CellTiter-Glo), SK-MEL-28. The class given is cell-based, Human. Conditions: Homo sapiens, SK-MEL-28, 72 h; 3 days incubation. The procedure, abridged:
as §1
A general note: Cellular ATP, detected with luciferase, serves as a proxy for viable cell number.

pIC50: −log10 of the molar value. Counter-ions that a name gives are not always drawn.

The results in this text go back to patent US20110319392A1, “Thiazole Sulfonamide And Oxazole Sulfonamide Kinase Inhibitors” (priority 2009, published 2011).

T1 sequence (P04626 23-1255): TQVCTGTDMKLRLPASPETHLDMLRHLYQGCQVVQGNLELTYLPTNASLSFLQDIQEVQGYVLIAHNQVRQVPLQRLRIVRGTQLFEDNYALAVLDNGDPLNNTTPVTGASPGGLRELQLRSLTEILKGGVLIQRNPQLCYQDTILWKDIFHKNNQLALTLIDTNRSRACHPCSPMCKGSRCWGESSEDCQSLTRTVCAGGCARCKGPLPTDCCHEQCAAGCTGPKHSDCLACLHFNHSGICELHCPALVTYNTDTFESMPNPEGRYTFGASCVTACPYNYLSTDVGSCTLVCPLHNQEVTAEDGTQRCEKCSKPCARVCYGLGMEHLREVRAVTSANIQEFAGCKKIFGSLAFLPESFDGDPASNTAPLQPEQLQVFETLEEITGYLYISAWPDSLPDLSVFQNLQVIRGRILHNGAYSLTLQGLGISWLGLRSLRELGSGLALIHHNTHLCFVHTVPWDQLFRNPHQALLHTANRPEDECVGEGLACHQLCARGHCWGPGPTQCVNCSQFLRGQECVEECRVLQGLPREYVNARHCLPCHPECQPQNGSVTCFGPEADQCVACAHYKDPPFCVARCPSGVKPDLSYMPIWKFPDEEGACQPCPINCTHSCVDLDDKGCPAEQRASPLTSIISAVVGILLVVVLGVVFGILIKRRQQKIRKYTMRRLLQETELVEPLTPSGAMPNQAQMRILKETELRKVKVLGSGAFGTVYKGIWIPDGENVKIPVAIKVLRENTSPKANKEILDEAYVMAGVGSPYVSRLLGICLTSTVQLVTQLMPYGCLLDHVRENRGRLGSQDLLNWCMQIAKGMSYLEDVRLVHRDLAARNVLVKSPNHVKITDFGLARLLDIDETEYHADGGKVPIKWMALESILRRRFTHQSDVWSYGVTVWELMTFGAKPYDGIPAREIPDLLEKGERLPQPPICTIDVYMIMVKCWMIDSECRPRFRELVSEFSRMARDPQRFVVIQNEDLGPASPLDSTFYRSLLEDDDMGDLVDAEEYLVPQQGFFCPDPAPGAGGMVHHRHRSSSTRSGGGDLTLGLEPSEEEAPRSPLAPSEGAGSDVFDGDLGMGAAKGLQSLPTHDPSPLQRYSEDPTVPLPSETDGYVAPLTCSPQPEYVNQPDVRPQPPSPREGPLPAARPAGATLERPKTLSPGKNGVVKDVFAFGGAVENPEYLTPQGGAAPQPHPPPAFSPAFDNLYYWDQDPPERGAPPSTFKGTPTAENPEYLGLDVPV

As for `CC(=O)N1CCN(c2ccc(Nc3nccc(-c4sc(C(C)C)nc4-c4cccc(NS(=O)(=O)C5CCCCC5)c4)n3)cn2)CC1` [Example 39], the pIC50 (in general, the IC50 on a negative log10 scale, so that one unit is a factor of ten) in assay [1] is 6.00 to 7.00; in assay [2], 6.00 to 7.00; in assay [3], under 6.00; in assay [4], 6.00 to 7.00.
On to `CC(C)(C)c1nc(-c2ccc(F)c(NS(=O)(=O)c3c(F)cccc3F)c2)c(-c2ccnc(Nc3ccc(N4CCOCC4)nc3)n2)s1` [Example 28, N-{5-[2-(1,1-Dimethylethyl)-5-(2-{[[6-(4-morpholinyl)-3-pyridinyl]amino}-4-pyrimidinyl)-1,3-thiazol-4-yl]-2-fluorophenyl]-2,6-difluorobenzenesulfonamide hydrochloride], for which the pIC50 in assay [1] is over 7.00; in assay [2] it was over 7.00; in assay [3] it was 6.00 to 7.00; in assay [4] it was over 7.00.
Consider `O=S(=O)(Nc1cc(-c2nc(N3CCOCC3)sc2-c2ccnc(Nc3ccc(N4CCOCC4)nc3)n2)ccc1F)c1c(F)cccc1F` [Example 121], for which the pIC50 in assay [1] was over 7.00; in assay [2], 6.00 to 7.00; in assay [3], 6.00 to 7.00; in assay [4], 6.00 to 7.00.
Turning to `CC(C)c1nc(-c2ccc(F)c(NS(=O)(=O)c3c(F)cccc3F)c2)c(-c2ccnc(Nc3ccc(N4CCN(CCF)CC4)c(F)c3)n2)s1` [Example 25], the pIC50 in assay [1] is over 7.00; in assay [2], 6.00 to 7.00; in assay [3], over 7.00; in assay [4], 6.00 to 7.00.
Take `O=S(=O)(Nc1cc(-c2nc(N3CCOCC3)sc2-c2ccnc(Nc3ccc4c(c3)OCCO4)n2)ccc1F)c1c(F)cccc1F` [Example 127]: the pIC50 in assay [1], in assay [3] and in assay [4] was 6.00 to 7.00 each time. The “Activity in SK-MEL-3 Tumor Cells” value in assay [2] is recorded as “+ (activity of >1 μM in SK-MEL-3 tumor cells)”.
For `CC(C)c1nc(-c2ccnc(NS(=O)(=O)c3c(F)cccc3F)c2)c(-c2ccnc(Nc3ccc(N4CCN(CCF)CC4)c(F)c3)n2)s1` [Example 100], the pIC50 in assay [1] is over 7.00; in assay [2] it was over 7.00; in assay [3], under 6.00; in assay [4], over 7.00.
`CC(C)c1nc(-c2cccc(NS(=O)(=O)c3c(F)cccc3F)c2)c(-c2ccnc(Nc3ccc(N4CCOCC4)c(C(=O)O)c3)n2)s1` [Example 14, 5-({4-[4-(3-{[(2,6-Difluorophenyl)sulfonyl]amino}phenyl)-2-(1-methylethyl)-1,3-thiazol-5-yl]-2-pyrimidinyl}amino)-2-(4-morpholinyl)benzoic acid]: the negative-log IC50 (pIC50) in assay [1] was over 7.00; in assay [2], over 7.00; in assay [3], under 6.00; in assay [4], over 7.00.
Consider `CC(C)(C)c1nc(-c2ccc(F)c(NS(=O)(=O)c3c(F)cccc3F)c2)c(-c2ccnc(Nc3ccc(N4CCN(CCF)CC4)c(F)c3)n2)s1` [Example 99], for which the pIC50 was over 7.00 in assay [1], 6.00 to 7.00 in assay [2], over 7.00 in assay [3] and 6.00 to 7.00 in assay [4].
`CC(C)c1nc(-c2cccc(NS(=O)(=O)c3ccccc3)c2)c(-c2ccnc(Nc3ccc(N4CCOCC4)nc3)n2)s1` [Example 8, N-{3-[2-(1-Methylethyl)-5-(2-{[6-(4-morpholinyl)-3-pyridinyl]amino}-4-pyrimidinyl)-1,3-thiazol-4-yl]phenyl}benzenesulfonamide hydrochloride]: the pIC50 is over 7.00 in assay [1], over 7.00 in assay [2], under 6.00 in assay [3] and over 7.00 in assay [4].
As to `CC(C)c1nc(-c2cccc(NS(=O)(=O)C3CCCCC3)c2)c(-c2ccnc(Nc3ccc(N4CCOCC4)c(F)c3)n2)s1` [Example 38], the pIC50 in assay [1], in assay [3] and in assay [4] was 6.00 to 7.00 each time. Besides, the “Activity in SK-MEL-3 Tumor Cells” value in assay [2] is recorded as “+ (activity of >1 μM in SK-MEL-3 tumor cells)”.
On to `CC(C)c1nc(-c2cccc(NS(=O)(=O)c3c(F)cccc3F)n2)c(-c2ccnc(Nc3ccc(N4CCOCC4)nc3)n2)s1` [Example 44], for which the pIC50 in assay [1] was over 7.00; in assay [2] it was 6.00 to 7.00; in assay [3] it was under 6.00; in assay [4] it was over 7.00.
